BindingDB's records for doi:10.1124/jpet.104.078303 (Abbott Laboratories, 2005)
Where “and” joins values, the source holds several entries; their conditions need not be identical. Equal entries are not always repeated.

How the values were obtained:
Histamine H3 receptor [1] = molecular target: Histamine H3 receptor (Homo sapiens, UniProt Q9Y5N1)
Histamine H4 receptor = Histamine H4 receptor (Homo sapiens, UniProt Q9H3N8)
Histamine H1 receptor = Histamine H1 receptor (Homo sapiens, UniProt P35367)
Histamine H2 receptor = Histamine H2 receptor (Homo sapiens, UniProt P25021)
Histamine receptor H3 = Histamine receptor H3 (Canis lupus familiaris, UniProt Q865E3)
Histamine H3 receptor [2] = molecular target: Histamine H3 receptor (Cavia porcellus, UniProt Q9JI35)
Hrh3 protein = Hrh3 protein (Rattus norvegicus, UniProt Q5PPG3)
Sequence of Hrh3 protein (Q5PPG3 whole entry): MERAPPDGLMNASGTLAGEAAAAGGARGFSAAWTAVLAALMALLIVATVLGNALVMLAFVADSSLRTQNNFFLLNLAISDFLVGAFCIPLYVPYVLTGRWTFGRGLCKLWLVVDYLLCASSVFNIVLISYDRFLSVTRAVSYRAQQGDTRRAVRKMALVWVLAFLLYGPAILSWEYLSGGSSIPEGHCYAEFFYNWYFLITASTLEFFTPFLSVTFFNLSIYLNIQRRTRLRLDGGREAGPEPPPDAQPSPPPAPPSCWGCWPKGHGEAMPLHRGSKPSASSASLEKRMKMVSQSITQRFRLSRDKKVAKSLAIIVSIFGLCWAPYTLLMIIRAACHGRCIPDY

Sequence of Histamine H4 receptor (Q9H3N8 whole entry): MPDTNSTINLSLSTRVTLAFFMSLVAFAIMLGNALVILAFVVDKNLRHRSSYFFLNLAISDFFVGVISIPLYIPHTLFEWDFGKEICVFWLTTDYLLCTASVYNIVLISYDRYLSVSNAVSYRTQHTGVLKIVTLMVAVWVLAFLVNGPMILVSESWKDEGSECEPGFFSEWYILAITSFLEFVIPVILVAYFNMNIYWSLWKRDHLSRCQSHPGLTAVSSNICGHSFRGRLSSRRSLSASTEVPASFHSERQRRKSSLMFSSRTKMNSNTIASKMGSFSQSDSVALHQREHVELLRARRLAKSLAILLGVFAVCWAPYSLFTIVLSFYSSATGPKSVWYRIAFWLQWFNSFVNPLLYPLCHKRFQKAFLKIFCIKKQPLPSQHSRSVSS
Sequence of Histamine H3 receptor (Homo sapiens, UniProt Q9Y5N1) (Q9Y5N1 whole entry): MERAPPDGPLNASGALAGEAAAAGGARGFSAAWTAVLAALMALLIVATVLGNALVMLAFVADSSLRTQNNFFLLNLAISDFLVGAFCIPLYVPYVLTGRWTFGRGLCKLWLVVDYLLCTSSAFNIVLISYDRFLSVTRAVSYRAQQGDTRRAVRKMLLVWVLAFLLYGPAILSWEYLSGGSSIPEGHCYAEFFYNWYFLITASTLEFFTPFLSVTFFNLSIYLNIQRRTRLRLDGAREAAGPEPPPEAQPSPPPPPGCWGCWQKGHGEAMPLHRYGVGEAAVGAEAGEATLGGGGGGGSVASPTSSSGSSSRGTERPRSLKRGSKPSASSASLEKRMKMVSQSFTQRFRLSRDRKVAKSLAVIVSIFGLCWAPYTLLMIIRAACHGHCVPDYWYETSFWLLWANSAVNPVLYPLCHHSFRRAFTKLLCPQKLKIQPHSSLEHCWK
Sequence of Histamine H2 receptor (P25021 whole entry): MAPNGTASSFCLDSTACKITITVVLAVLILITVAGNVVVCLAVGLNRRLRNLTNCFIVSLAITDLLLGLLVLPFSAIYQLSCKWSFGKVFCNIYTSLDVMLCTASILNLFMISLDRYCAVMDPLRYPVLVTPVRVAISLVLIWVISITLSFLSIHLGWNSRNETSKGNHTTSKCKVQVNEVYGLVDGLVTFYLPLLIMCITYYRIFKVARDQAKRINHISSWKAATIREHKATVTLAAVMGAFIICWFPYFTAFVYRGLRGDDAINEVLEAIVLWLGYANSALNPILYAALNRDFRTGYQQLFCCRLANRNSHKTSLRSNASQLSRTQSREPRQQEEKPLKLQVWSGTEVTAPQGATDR
Sequence of Histamine receptor H3 (Q865E3 whole entry): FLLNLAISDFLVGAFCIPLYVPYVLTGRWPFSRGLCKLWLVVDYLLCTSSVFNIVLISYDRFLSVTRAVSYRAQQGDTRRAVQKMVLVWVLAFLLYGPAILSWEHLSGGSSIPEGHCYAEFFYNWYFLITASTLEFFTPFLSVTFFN
Sequence of Histamine H3 receptor (Cavia porcellus, UniProt Q9JI35) (Q9JI35 whole entry): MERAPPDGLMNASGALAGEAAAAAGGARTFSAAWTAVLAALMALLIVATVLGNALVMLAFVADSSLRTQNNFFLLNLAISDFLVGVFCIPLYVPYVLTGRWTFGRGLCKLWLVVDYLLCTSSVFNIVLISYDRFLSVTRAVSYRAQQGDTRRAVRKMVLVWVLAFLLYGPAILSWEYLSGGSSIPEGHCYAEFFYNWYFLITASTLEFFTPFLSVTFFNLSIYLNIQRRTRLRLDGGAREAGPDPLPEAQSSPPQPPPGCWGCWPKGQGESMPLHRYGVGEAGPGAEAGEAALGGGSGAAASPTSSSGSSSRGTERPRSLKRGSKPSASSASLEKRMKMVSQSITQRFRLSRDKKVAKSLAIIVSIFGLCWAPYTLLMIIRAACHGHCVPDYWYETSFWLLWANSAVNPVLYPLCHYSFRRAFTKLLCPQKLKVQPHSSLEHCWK
Sequence of Histamine H1 receptor (P35367 whole entry): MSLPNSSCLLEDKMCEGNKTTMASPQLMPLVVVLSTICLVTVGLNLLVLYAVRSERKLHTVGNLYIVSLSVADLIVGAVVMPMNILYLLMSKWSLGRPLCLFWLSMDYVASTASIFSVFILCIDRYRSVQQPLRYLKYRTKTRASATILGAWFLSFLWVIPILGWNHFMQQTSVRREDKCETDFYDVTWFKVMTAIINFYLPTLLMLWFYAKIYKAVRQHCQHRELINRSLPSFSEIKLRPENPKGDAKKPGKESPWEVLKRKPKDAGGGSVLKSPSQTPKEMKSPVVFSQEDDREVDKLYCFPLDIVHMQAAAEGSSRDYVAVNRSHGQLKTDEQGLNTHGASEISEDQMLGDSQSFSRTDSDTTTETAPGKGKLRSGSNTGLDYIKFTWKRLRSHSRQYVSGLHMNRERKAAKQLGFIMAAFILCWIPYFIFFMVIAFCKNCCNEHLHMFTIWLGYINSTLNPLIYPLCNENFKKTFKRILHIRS

| Compound | Ki (Histamine H3 receptor [1]) | Ki (Histamine H4 receptor) | Ki (Histamine H1 receptor) | Ki (Histamine H2 receptor) | Ki (Histamine receptor H3) | Ki (Histamine H3 receptor [2]) | Ki (Hrh3 protein) |
| --- | --- | --- | --- | --- | --- | --- | --- |
| CC(C)(C)CCC#C[C@@H]1C[C@H]1c1c[nH]cn1 | 5.25 nM and 12.3 nM | 51.3 nM | > 10000 nM | > 10000 nM | 1.32 nM | 0.63 nM | 0.11 nM and 0.25 nM |
| C[C@@H]1CC[C@@H](C)N1CCCOc1ccc(-c2ccc(C(=O)N3CCOCC3)cc2)cc1 [(4'-(3-((2R,5R)-2,5-dimethylpyrrolidin-1-yl)propoxy)biphenyl-4-yl)(morpholino)methanone] | 0.41 nM and 0.43 nM | > 10000 nM | – | > 10000 nM | 1.2 nM | 0.55 nM | 1.66 nM and 1.45 nM |
| C[C@@H]1CCCN1CCc1cc2cc(-c3ccc(C#N)cc3)ccc2o1 [(R)-4-(2-(2-(2-methylpyrrolidin-1-yl)ethyl)benzofuran-5-yl)benzonitrile] | – | > 10000 nM | 1620 nM | 6760 nM | 3.89 nM | – | 1.23 nM and 3.24 nM |
